# Measured values as given in ChEMBL document CHEMBL3399944, “Synthesis and anticancer cell potential of steroidal 16,17-seco-16,17a-dinitriles: identification of a selective inhibitor of hormone-independent breast cancer cells” (Bioorg Med Chem, 2015).
# Tests used:
# MDA-MB-231 [1] = assay: Induction of apoptosis in human MDA-MB-231 cells at IC50 after 48 hrs by Giemsa staining-based light microscopy (reference value: 7%); type: functional
# MRC5 = assay: Antiproliferative activity against human MRC5 cells after 48 hrs by MTT assay; type: cell-based; conditions: MRC5, 48 h
# HeLa = assay: Antiproliferative activity against human HeLa cells after 48 hrs by MTT assay; type: functional, cell-based
# MDA-MB-231 [2] = assay: Antiproliferative activity against human MDA-MB-231 cells after 48 hrs by MTT assay; type: functional, cell-based; conditions: MDA-MB-231, 48 h
# [3] = Antiproliferative activity against human PC3 cells after 48 hrs by MTT assay; type: functional, cell-based; conditions: PC-3, 48 h
# MCF7 [4] = assay: Antiproliferative activity against human MCF7 cells after 48 hrs by MTT assay; type: functional, cell-based; conditions: MCF7, 48 h
# MCF7 [5] = assay: Antiproliferative activity against human MCF7 cells at 10 nM after 48 hrs by MTT assay; type: functional; conditions: MCF7, 48 h
# MDA-MB-231 [6] = assay: Antiproliferative activity against human MDA-MB-231 cells at 10 nM after 48 hrs by MTT assay; type: functional; conditions: MDA-MB-231, 48 h
structure (smiles),measurement,setting,value
C[C@]1(CC#N)CC[C@@H]2c3ccc(O)cc3CC[C@H]2[C@@H]1CC#N,Activity,MDA-MB-231 [1],11.1%
same,IC50,MRC5,> 100 µM
same,IC50,HeLa,7.32 µM
same,IC50,MDA-MB-231 [2],3.96 µM
same,IC50,[3],11.2 µM
same,IC50,MCF7 [4],17 µM
C[C@]1(CC#N)CC[C@H]2[C@@H](CC=C3C[C@@H](O)CC[C@@]32C)[C@@H]1CC#N,Activity,MDA-MB-231 [1],18%
same,IC50,MRC5,> 100 µM
same,IC50,HeLa,2.15 µM
same,IC50,MDA-MB-231 [2],34.8 µM
same,IC50,[3],19.1 µM
same,IC50,MCF7 [4],30 µM
C[C@]1(CC#N)CC[C@H]2[C@@H](CCC3=CC(=O)CC[C@@]32C)[C@@H]1CC#N,Activity,MDA-MB-231 [1],15.9%
same,IC50,MRC5,> 100 µM
same,IC50,HeLa,5.73 µM
same,IC50,MDA-MB-231 [2],15.5 µM
same,IC50,[3],8.27 µM
same,IC50,MCF7 [4],15 µM
C[C@]1(CC#N)CC[C@H]2[C@@H](CCC3=C(O)C(=O)CC[C@@]32C)[C@@H]1CC#N,Activity,MDA-MB-231 [1],11%
same,IC50,MRC5,> 100 µM
same,IC50,HeLa,14.7 µM
same,IC50,MDA-MB-231 [2],39.6 µM
same,IC50,[3],8.69 µM
same,IC50,MCF7 [4],57 µM
C[C@]1(CC#N)CC[C@H]2[C@@H](CCC3=CC(=O)C=C[C@@]32C)[C@@H]1CC#N,Activity,MDA-MB-231 [1],14.1%
same,IC50,MRC5,> 100 µM
same,IC50,HeLa,12.5 µM
same,IC50,MDA-MB-231 [2],0.11 µM
same,IC50,[3],70.9 µM
same,inhibition at 0.01 µM,MCF7 [5],61%
same,IC50,MCF7 [4],0.52 µM
same,inhibition at 0.01 µM,MDA-MB-231 [6],69%
COc1cccc2c1C(=O)c1c(O)c3c(c(O)c1C2=O)C[C@@](O)(C(=O)CO)C[C@@H]3O[C@H]1C[C@H](N)[C@H](O)[C@H](C)O1 [DOXORUBICIN],Activity,MDA-MB-231 [1],11%
same,IC50,[3],95.6 µM
same,IC50,MCF7 [4],0.75 µM
C[C@]12CCC(=O)C(O)=C1CC[C@@H]1[C@@H]2CC[C@]2(C)C(=O)CC[C@@H]12 [FORMESTANE],Activity,MDA-MB-231 [1],11%
same,IC50,MRC5,> 100 µM
same,IC50,HeLa,1.9 µM
same,IC50,MDA-MB-231 [2],53.3 µM
same,IC50,[3],45.6 µM
same,IC50,MCF7 [4],> 100 µM
